Measurements taken from paper PMC3914206.

Legend:
panel of 442 kinases [1] = target: T1, panel of 442 kinases (Homo sapiens, UniProt Q15569); format: binding; details: kinase TESK1; compound concentration 10 µM
T1 construct: purchased KINOMEscan
Text: (§1) We assessed the selectivity of members of this scaffold using the KINOMEscan methodology across a near comprehensive panel of 442 kinases [[18,27]].

panel of 442 kinases [2] = target: T2, panel of 442 kinases (Homo sapiens, UniProt Q96PY6); format: binding; details: Compound Concentration 10 µM
T2 construct: purchased KINOMEscan
T2 sequence (Q96PY6 1-1258): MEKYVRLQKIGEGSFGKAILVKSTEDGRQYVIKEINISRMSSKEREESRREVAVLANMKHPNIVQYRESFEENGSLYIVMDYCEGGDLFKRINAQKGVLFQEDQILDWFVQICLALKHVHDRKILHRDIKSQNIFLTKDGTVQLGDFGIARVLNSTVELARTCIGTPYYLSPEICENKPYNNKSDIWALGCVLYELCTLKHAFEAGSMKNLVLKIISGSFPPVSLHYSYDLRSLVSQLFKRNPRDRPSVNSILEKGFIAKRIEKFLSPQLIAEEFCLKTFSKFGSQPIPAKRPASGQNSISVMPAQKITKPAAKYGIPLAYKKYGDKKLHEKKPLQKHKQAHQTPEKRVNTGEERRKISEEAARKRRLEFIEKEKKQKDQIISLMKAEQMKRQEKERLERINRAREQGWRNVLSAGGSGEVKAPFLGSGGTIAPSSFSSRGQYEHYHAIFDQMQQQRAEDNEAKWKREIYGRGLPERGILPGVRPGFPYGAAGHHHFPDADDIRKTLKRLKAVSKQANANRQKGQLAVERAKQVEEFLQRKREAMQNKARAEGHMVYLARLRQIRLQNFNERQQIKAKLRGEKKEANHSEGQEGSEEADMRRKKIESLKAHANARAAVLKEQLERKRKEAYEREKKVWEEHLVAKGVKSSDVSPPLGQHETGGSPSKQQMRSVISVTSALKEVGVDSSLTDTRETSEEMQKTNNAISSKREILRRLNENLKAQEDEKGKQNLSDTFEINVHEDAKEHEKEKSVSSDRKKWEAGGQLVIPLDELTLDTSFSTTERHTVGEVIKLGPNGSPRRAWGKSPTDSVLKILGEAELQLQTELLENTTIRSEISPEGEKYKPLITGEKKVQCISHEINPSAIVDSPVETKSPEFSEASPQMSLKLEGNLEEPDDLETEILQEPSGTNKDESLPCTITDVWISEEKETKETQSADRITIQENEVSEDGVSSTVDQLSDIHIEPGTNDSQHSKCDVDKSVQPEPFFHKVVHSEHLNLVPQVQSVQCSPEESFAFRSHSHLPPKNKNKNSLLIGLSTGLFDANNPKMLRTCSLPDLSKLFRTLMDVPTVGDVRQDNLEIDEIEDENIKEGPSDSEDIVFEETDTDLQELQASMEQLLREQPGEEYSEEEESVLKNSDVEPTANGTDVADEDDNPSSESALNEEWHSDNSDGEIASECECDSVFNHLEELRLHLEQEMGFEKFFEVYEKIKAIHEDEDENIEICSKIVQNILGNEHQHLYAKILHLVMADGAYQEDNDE
Text: as §1

T1 sequence (Q15569 whole entry): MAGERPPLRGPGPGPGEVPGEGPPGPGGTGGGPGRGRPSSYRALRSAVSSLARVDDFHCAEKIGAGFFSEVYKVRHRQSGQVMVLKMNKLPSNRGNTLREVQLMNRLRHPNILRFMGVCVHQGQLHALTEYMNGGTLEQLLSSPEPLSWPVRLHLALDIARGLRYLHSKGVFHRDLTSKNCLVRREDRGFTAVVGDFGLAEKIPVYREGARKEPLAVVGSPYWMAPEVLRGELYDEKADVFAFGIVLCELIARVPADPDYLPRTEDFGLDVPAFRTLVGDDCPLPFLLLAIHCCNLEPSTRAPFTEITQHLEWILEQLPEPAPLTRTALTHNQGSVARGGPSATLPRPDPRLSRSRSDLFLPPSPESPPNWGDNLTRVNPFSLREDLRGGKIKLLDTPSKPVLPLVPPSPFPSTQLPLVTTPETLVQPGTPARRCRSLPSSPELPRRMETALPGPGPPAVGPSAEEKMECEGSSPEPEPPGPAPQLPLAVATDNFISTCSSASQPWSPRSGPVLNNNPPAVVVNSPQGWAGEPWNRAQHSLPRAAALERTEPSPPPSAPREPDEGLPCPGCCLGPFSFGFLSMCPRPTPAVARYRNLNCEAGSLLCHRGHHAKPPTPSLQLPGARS

Row | Compound | % Ctrl, TESK1 (panel of 442 kinases [1]) | KINOMEscan: NEK1 (panel of 442 kinases [2])
1 | CCOc1cc(C(=O)N2CCC(N3CCN(C)CC3)CC2)ccc1Nc1ncc2c(n1)N(C1CCCC1)c1ccccc1C(=O)N2C [Compound 26] | 100 % Ctrl | 84
2 | COc1cc(C(=O)N2CCC(N3CCN(C)CC3)CC2)ccc1Nc1ncc2c(n1)N(C1CCCC1)c1ccccc1C(=O)N2C [Compound 25, 11-cyclopentyl-2-((2-methoxy-4-(4-(4-methylpiperazin-1-yl)piperidine-1-carbonyl)phenyl)amino)-5-methyl-5H-benzo[e]pyrimido[5,4-b][1,4]diazepin-6(11H)-one] | 100 % Ctrl | 72
3 | COc1cc(C(=O)N2CCC(N3CCN(C)CC3)CC2)ccc1Nc1ncc2c(n1)N1CCc3cccc(c31)C(=O)N2C [Compound 24] | 84 % Ctrl | 63
4 | COc1cc(C(=O)N2CCC(N3CCN(C)CC3)CC2)ccc1Nc1ncc2c(n1)N(C)c1ccccc1C(=O)N2C [15 (LRRK2-IN-1)] | 82 % Ctrl | 83
